The values that follow come from patent US20200078379A1, “DEFEROXAMINE DERIVATIVES AS MEDICAMENTS” (BIOTECHNOLOGICKY USTAV AV CR, V.V.I., priority 2017, published 2020).

Each structure is given as a SMILES string. Like-named read-outs stand apart in the source and are kept apart here.

Assay [1] has as its system murine triple negative breast cancer cell line 4T1. As to the kind of experiment: crystal violet assay, cellular viability. The settings on record: Mus musculus, 4T1, 48 hours. Format: cell-based. As to the method:
(§1) Compound 1 and compound 2 were tested in their efficacy to kill malignant MCF7 cancer cells. Briefly, 10.000 cells per well were seeded in a 96-well plat on one day and the next day selected compounds were added and incubated with the cells for 48 hrs. The cells were then fixed with 4% paraformaldehyde, stained with 0.05% crystal violet, washed with PBS, and solubilized in 1% SDS. The absorbance of the plate at 595 nm was then measured, quantifying the number of viable cells.
(§2) A number of compounds of the present invention were tested for cytotoxicity towards at least some of human breast cancer cell lines (MCF7, MDA-MB-231), human fibroblast (BJ) and murine triple negative breast cancer cell line 4T1 (Table 2).

Assay [2] has as its system MDA-MB-231 cells. In words: crystal violet assay, cellular viability. Format: cell-based, human. The following applies: Homo sapiens, read-out: IC50 cellular viability. As to the method:
as §1, §2

Assay [3] concerns MCF7 cells. In words: crystal violet assay, cellular viability. The following applies: for IC50: MCF7, 48 h, read-out: IC50 cellular viability. Format: cell-based, human. As to the method: as §1, §2
In assay [4] the test system is T47D cells. As to the kind of experiment: AnnexinV/PI cell death assay. In kind it is cell-based. The following applies: 200 μM, 48 hrs. As for the experimental part: (§3) To confirm such findings by an independent method, cell death-inducing potency (cytotoxic efficacy) of DFO and compound 2 have been tested via annexin V/PI staining commonly used as a measure of apoptotic/necrotic cell death. Briefly, cells were seeded in 12-well plate at 100,000 per well, incubated with the selected compounds for 48 hours, then floating cells were spun, adherent cells trypsinized and spun as well followed by the staining with AnnexinV-FITC and PI probes. Cells were then washed with PBS and measured via Fluorescence Activated Sorter.
Since compound 2 is an iron chelator, we have evaluated the effect of pretreating compound 2 with iron. at a 1:1 ratio by using the Annexin V/PI staining as in example 7.

In assay [5] the test system is MCF7 cells. In words: AnnexinV/PI cell death assay. In kind it is cell-based, human. As for the experimental part: Briefly, cells were seeded in 12-well plate at 100,000 per well, incubated with the selected compounds for 48 hours, then floating cells were spun, adherent cells trypsinized and spun as well followed by the staining with AnnexinV-FITC and PI probes. Cells were then washed with PBS and measured via Fluorescence Activated Sorter.

The test system of assay [6] is non malignant cells (BJ), human fibroblast. In words: crystal violet assay, cellular viability. Format: cell-based. As to the method: as §1, §2
The subject of a further assay is BT474 cells. As to the kind of experiment: AnnexinV/PI cell death assay. Format: cell-based. The settings on record: BT474, 200 μM, 48 hrs. As to the method: as §3
The test system of a further assay is BT549 cells. In words: AnnexinV/PI cell death assay. In kind it is cell-based. The following applies: BT549, 200 μM, 48 hrs. As to the method: as §3
For assay [7], the system named is MCF7 cells. As to the kind of experiment: cellular proliferation in real time, Xcelligence technology. In kind it is cell-based. As for the experimental part:
The ability of compound 2 to affect the proliferation and cell death induction in real time was monitored by the Xcelligence technology that detects changes in electrical impedance related to the cell number. In brief, special 16-well e-plates containing gold electrodes were filled with medium, blank values were recorded, and then 5.000 cells per well were seeded in the plate and let to attach for 2 hours, followed by the addition of compounds. The electrical impedance was then monitored over time in real-time every 15 minutes. In this case a line is drawn that reflects the cell number over time. […] We have seen a clear inhibition of proliferation with compound 2 at 1 μM, complete block of proliferation at 2 μM concentration, while the cytotoxic effect is seen at 5 μM (Table 9).

Assay [8] relates to T47D cells. As to the kind of experiment: crystal violet assay, cellular viability. Format: cell-based. The following applies: 48 hours.
In assay [9] the test system is MDA-MB-231 cells. In words: AnnexinV/PI cell death assay. In kind it is cell-based, human. The following applies: MDA-MB-231, 200 μM, 48 hrs. As for the experimental part:
as §3

A further assay has as its system non malignant cells (BJ). In words: AnnexinV/PI cell death assay. Format: cell-based. As for the experimental part:
as §3
We have then analyzed the percentage of death cells by the annexinV/PI staining as described in example 7. We have observed a significant potentiation in cell death induction when gallium was combined with compound 2 (Table 14)

Assay [10] has as its system pancreatic cell line BxPC3. In words: dose-effect relationship of drugs and mixtures, crystal violet assay, Median-Effect / Combination index. In kind it is cell-based. The following applies: 48 hours. As for the experimental part:
(§4) The potentiation of cytotoxic effect of compound 2 in combination with several cytostatics was evaluated. The dose-effect relationship of individual drugs and mixtures of compound 2 with paclitaxel, cis Pt (cis-platin), doxorubicin and fluorouracil was determined on human mammary gland cancer cell line MDA-MB-231 and pancreatic cell line BxPC3 by means of crystal violet assay. The linearized Median-Effect Plot of dose response line provided both parameters (IC50; trend line m(slope) value) of Median-Effect Equation for individual and combination treatment [ref: Theoretical basis, experimental design, and computerized simulation of synergism and antagonism in drug combination studies; Ting-Chao Chou: Pharmacol Rev. 58(3), 2006, 621-81; Erratum in Pharmacol Rev. 2007; 59(1), 124]:
(§5) Potentiation of combination effect of compound 2 was expressed for concentrations IC50, IC75, IC90, IC95 by calculation of Combination index (CI) applying Combination Index Theorem for mutually exclusive drugs. Overall CI was expressed by means of weighted average of IC50, IC75, IC90, IC95 [ref: Quantitative analysis of dose-effect relationships: the combined effects of multiple drugs or enzyme inhibitors; Ting-Chao Chou, Paul Talalay: Advances in Enzyme Regulation, Volume 22, 1984, Pages 27-55]: […]

In assay [11] the test system is human mammary gland cancer cell line MDA-MB-231. The description is as above. Format: cell-based. As for the experimental part:
as §4, §5

The mark [12] stands for this setting: MDA-MB-231, 48 hours, crystal violet.

As usually defined, the IC50 is the concentration that inhibits the measured activity by half. In the case of `CC(=O)N(O)CCCCCNC(=O)CCC(=O)N(O)CCCCCNC(=O)CCC(=O)N(O)CCCCCN(CCCCCCCCCC[P+](C1CCCCC1)(C1CCCCC1)C1CCCCC1)CCCCCCCCCC[P+](C1CCCCC1)(C1CCCCC1)C1CCCCC1` [Compound 4, Tricyclohexyl(3,14,25-trihydroxy-2,10,13,21,24-pentaoxo-31-(10-(tricyclohexylphosphonio)decyl)-3,9,14,20,25,31-hexaazahentetracontan-31-ium-41-yl) phosphonium trichloride], the 50% inhibitory concentration (IC50) in assay [1] amounted to 1800 nM; in the assay with MDA-MB-231 cells [2] (MDA-MB-231, 48 h), 1300 nM; with MCF7 cells [3] (Homo sapiens, crystal violet), 700 nM.

In the case of `CCCC[P+](CCCC)(CCCC)CCCCCCCCCCN(CCCCCCCCCC[P+](CCCC)(CCCC)CCCC)CCCCCN(O)C(=O)CCC(=O)NCCCCCN(O)C(=O)CCC(=O)NCCCCCN(O)C(C)=O` [Compound 6, 42,42-dibutyl-3,14,25-trihydroxy-2,10,13,21,24-pentaoxo-31-(10-(tributylphosphonio)decyl)-3,9,14,20,25,31-hexaaza-42-phosphahexatetracontane-31,42-diium trichloride], the IC50 in assay [1] came out at 4900 nM; in the assay with MDA-MB-231 cells [2] (setting [12]), 2800 nM; with MCF7 cells [3] (Homo sapiens, crystal violet) it was 3000 nM.

Regarding `CC(=O)N(O)CCCCCNC(=O)CCC(=O)N(O)CCCCCNC(=O)CCC(=O)N(O)CCCCCN(CCCCCCCCCCCC[P+](c1ccccc1)(c1ccccc1)c1ccccc1)CCCCCCCCCCCC[P+](c1ccccc1)(c1ccccc1)c1ccccc1` [Compound 8, Triphenyl(3,14,25-trihydroxy-2,10,13,21,24-pentaoxo-31-(12-(triphenylphosphonio)dodecyl)-3,9,14,20,25,31-hexaazatritetracontan-31-ium-43-yl)phosphonium trichloride], the IC50 turned out to be 1200 nM in assay [1]; 600 nM in the assay with MDA-MB-231 cells [2] (MDA-MB-231, 48 h); 500 nM with MCF7 cells [3] (Homo sapiens, crystal violet).

Take `CC(=O)N(O)CCCCCNC(=O)CCC(=O)N(O)CCCCCNC(=O)CCC(=O)N(O)CCCCCN(CCCCCCCCCC[P+](Cc1ccccc1)(Cc1ccccc1)Cc1ccccc1)CCCCCCCCCC[P+](Cc1ccccc1)(Cc1ccccc1)Cc1ccccc1` [Compound 9, 2,2-dibenzyl-19,30,41-trihydroxy-20,23,31,34,42-pentaoxo-1-phenyl-13410-(tribenzylphosphonio)decyl)-13,19,24,30,35,41-hexaaza-2-phosphatritetracontane-2,13-diium trichloride]: the IC50 in assay [1] was 1800 nM; with MDA-MB-231 cells [2] (MDA-MB-231, 48 h), 800 nM; in the assay on MCF7 cells [3] (Homo sapiens, crystal violet) it was 900 nM.

`CCCCCCCC[P+](CCCCCCCC)(CCCCCCCC)CCCCCCCCCCN(CCCCCCCCCC[P+](CCCCCCCC)(CCCCCCCC)CCCCCCCC)CCCCCN(O)C(=O)CCC(=O)NCCCCCN(O)C(=O)CCC(=O)NCCCCCN(O)C(C)=O` [Compound 10, 3,14,25-trihydroxy-42,42-dioctyl-2,10,13,21,24-pentaoxo-31-(10-(trioctylphosphonio)decyl)-3,9,14,20,25,31-hexaaza-42-phosphapentacontane-31,42-diium trichloride]: the IC50 in [1] was determined as 1300 nM; with MDA-MB-231 cells [2] (setting [12]) it was 700 nM; with MCF7 cells [3] (Homo sapiens, crystal violet), 800 nM.

The compound `CC(=O)N(O)CCCCCNC(=O)CCC(=O)N(O)CCCCCNC(=O)CCC(=O)N(O)CCCCCN(Cc1cnnn1CCCCCCCCCC[P+](c1ccccc1)(c1ccccc1)c1ccccc1)Cc1cnnn1CCCCCCCCCC[P+](c1ccccc1)(c1ccccc1)c1ccccc1` [Compound 20, Triphenyl(10-(5-(8,19,30-trihydroxy-9,12,20,23,31-pentaoxo-2-((1-(10-(triphenylphosphonio)decyl)-1H-1,2,3-triazol-5-yl)methyl)-2,8,13,19,24,30-hexaazadotriacontyl)-1H-1,2,3-triazol-1-yl)decyl)phosphonium] returned an IC50 in [1] of 2200 nM.

`CC(=O)N(O)CCCCCNC(=O)CCC(=O)N(O)CCCCCNC(=O)CCC(=O)N(O)CCCCCN` [DFO, deferoxamine]: the “mean percentage of dead cells (AnnexinV/PI)” value is 14.1 (7.2) % in the assay with T47D cells [4]; 45.0% in the assay with MCF7 cells [5] (MCF7, 200 μM, 48 hrs); 19.2% with BT474 cells; 18.3% in the assay on BT549 cells; 22.4% with MDA-MB-231 cells [9]; 10.5% in the assay with non malignant cells (BJ) (200 μM, 48 hrs). For the same compound, the “Selectivity index (IC50 non-malignant/IC50 malignant)” value in assay [6] (BJ vs BJ (reference)) was determined as 1; in the assay with MCF7 cells [3] (BJ vs MCF7, 48 hours), 1.72; in the assay on T47D cells [8] (BJ vs T47D), 0.80. Besides, the IC50 amounted to 219000 nM in assay [6] (Homo sapiens, Fibroblast, BJ non malignant, 48 hours, crystal violet) and 272000 nM in the assay on T47D cells [8] (Homo sapiens, T47D, crystal violet, read-out: IC50 cellular viability). Moreover, the viability at 2 µM in the assay with MCF7 cells [3] (Homo sapiens, MCF7, 2 μM, 48 hrs, crystal violet, read-out: mean percentage of viable cells compared to non-treated controls) is 92%. For the same compound, in the assay on MCF7 cells [3] (Homo sapiens, MCF7, 5 μM, 48 hrs, crystal violet, read-out: mean percentage of viable cells compared to non-treated controls), the viability at 5 µM came to 95.9%. Further, the viability at 10 µM with MCF7 cells [3] (Homo sapiens, MCF7, 10 μM, 48 hrs, crystal violet, read-out: mean percentage of viable cells compared to non-treated controls) is 92.2%. In addition, the “slope of the line (relative number of cells in relation to time)” value in the assay with MCF7 cells [7] (MCF7, 0-15 h, 1 μM) is given as 1.02; in the assay on MCF7 cells [7] (MCF7, 0-15 h, 2 μM), 1.12; in the assay on MCF7 cells [7] (MCF7, 0-15 h, 5 μM), 1.01; with MCF7 cells [7] (MCF7, 0-36 h, 1 μM), 1.31; in the assay with MCF7 cells [7] (MCF7, 0-36 h, 2 μM), 1.53; in the assay on MCF7 cells [7] (MCF7, 0-36 h, 5 μM), 0.50.

With `[Cl][Ga]([Cl])[Cl]` [GaCl3, gallium chloride, reference compound], the “percentage of death cells by annexinV/PI staining” value with MCF7 cells [5] (MCF7, ratio Ga:compound 2 1:0, 5 μM gallium salt alone) is reported as 5.9 (2.5); with non malignant cells (BJ) (ratio Ga:compound 2 1:0, 5 μM gallium salt alone), 2.4 (0.1).

Turning to `N.N.[Cl][Pt][Cl]` [cis Pt, cis-platin], the “Median-Effect Plot parameter m (slope)” value is listed as 1.59 in assay [10] and 1.4574 in assay [11] (MDA-MB-231, crystal violet, 48 hours). The IC50 in [10] (read-out: Median-Effect Plot parameter IC50) turned out to be 4180 nM; in assay [11] (MDA-MB-231, crystal violet, 48 hours, Chou-Talalay method, read-out: Median-Effect Plot parameter IC50), 21800 nM. Also, the “concentration of the cytostatic at IC75, cytostatic alone” value in assay [11] (MDA-MB-231) stood at 42275.1 nM.
